# Numbered stars: 1 amine (or outer) side, 2 acyl side, 3 side chain; on linkers, the order of the positions; unused ones are H or OH. Bridge positions count the residues as written; N and C are the ends. Square brackets hold non-standard residues; d marks the D form. Peptide text beside a SMILES is read from it. ξ: configuration not given here. X1 = CC(C)C[C@H](N[*:1])C(=O)NC(=O)[*:2]; NMeNle = CCCC[C@H](NC)C(=O)O; NMeA = CN[C@@H](C)C(=O)O; ξP = O=C(O)C1CCCN1; ξC = NC(CS)C(=O)O; Sar = CNCC(=O)O
# Target: Programmed cell death 1 ligand 1 (Homo sapiens, UniProt Q9NZQ7)
# Assay: Inhibition of PD-L1 (unknown origin)
# Programmed cell death 1 ligand 1, sequence (Q9NZQ7 whole entry): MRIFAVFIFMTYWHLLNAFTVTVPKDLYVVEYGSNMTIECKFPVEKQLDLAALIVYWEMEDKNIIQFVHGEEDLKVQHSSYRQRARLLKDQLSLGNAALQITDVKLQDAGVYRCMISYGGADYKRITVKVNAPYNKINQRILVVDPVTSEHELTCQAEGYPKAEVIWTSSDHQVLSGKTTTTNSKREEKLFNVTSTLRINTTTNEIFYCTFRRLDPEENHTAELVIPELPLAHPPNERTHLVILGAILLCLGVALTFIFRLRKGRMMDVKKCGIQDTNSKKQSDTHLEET
structure (smiles),measurement,value
CCCC[C@H]1C(=O)N(C)[C@@H](CCCC)C(=O)N[C@@H](CCCNC(=N)N)C(=O)NC(C(=O)NCC(N)=O)CSCC(=O)N[C@@H](Cc2ccccc2)C(=O)N(C)[C@@H](C)C(=O)N[C@@H](CC(N)=O)C(=O)N2CCCC2C(=O)N[C@@H](CC(C)C)C(=O)NC(=O)N(C)CC(=O)NCC(=O)N[C@@H](Cc2c[nH]c3ccccc23)C(=O)N[C@@H](Cc2c[nH]c3ccccc23)C(=O)N1C (stereo partly specified) ({CH2CO}-F[NMeA]N[ξP][X1][Sar]GWW[NMeNle][NMeNle]R[ξC]G-NH2; thioether N-13),IC50,5.2 nM
